Results on 32 compounds are retold here after the supplement of paper PMC11616607.

For the first assay, the system named is COV318. The assay can be described thus: drug sensitivity score (DSS) from 5-point dose-response viability curve (DSS (area-under-curve based score)); higher = more sensitive (stronger growth inhibition or killing); extreme values may be limits of the assay. The note with it: exposure time: 72 h; concentration range: 5 concentrations over 10,000-fold range. The method in brief:
(§1)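 Drug sensitivity scores were calculated in Breeze software for each cell line and drug pair; higher scores indicate more sensitivity. A score of zero indicates no response. The underlying assay used 384-well plates: drugs were placed by an Echo 550 acoustic dispenser at five concentrations spanning a 10,000-fold range, 1,500 ovarian cancer or normal ovarian cells were added per well, and cells were kept 3 days at 37°C, 5% CO2. Viability was then measured with CellTiter-Glo luminescence on a PHERAstar FS.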
As to `Nc1cc(COc2c(Cl)cc(C[C@H](N)C(=O)O)cc2Cl)c2oc(-c3ccccc3)nc2c1` [JPH203], the drug sensitivity score worked out at 0.

The compound `CC(C)NC(=O)COc1cccc(-c2nc(Nc3ccc4[nH]ncc4c3)c3ccccc3n2)c1` [KD025] registered a drug sensitivity score of 0.

`CS(=O)(=O)CCNCc1ccc(-c2ccc3ncnc(Nc4ccc(OCc5cccc(F)c5)c(Cl)c4)c3c2)o1` [Lapatinib]: the drug sensitivity score was 0.

As to `O=C(Nc1cnn2ccc(N3CCC[C@@H]3c3cc(F)ccc3F)nc12)N1CC[C@H](O)C1` [Larotrectinib], the drug sensitivity score came to 0.

For `Oc1ccc2c(c1)CC[C@H](c1ccccc1)[C@@H]2c1ccc(OCCN2CCCC2)cc1` [Lasofoxifene], the drug sensitivity score was found to be 0.

In turn, `Nc1cccc2c1CN(C1CCC(=O)NC1=O)C2=O` (stereo not drawn) [Lenalidomide] yielded a drug sensitivity score of 0.

`COc1cc2nccc(Oc3ccc(NC(=O)NC4CC4)c(Cl)c3)c2cc1C(N)=O` [Lenvatinib]: the drug sensitivity score amounted to 0.9.

`N#Cc1ccc(C(c2ccc(C#N)cc2)n2cncn2)cc1` [Letrozole] yielded a drug sensitivity score of 0.

Compound `Cc1ccc(F)c(NC(=O)Nc2ccc(-c3cccc4[nH]nc(N)c34)cc2)c1` [Linifanib] registered a drug sensitivity score of 0.2.

Take `C[C@]1(O)C[C@@H](c2nc(-c3ccc4ccc(-c5ccccc5)nc4c3)c3c(N)nccn32)C1` [Linsitinib]: the drug sensitivity score worked out at 0.

`CCNCCS(=O)(=O)NC[C@@]1(c2ccccc2)SC(NC(=O)C(C)(C)C)=NN1C(=O)C(C)(C)C` [Litronesib] showed a drug sensitivity score of 3.4.

Turning to `Nc1nc(OCc2cc(Br)cs2)c2[nH]cnc2n1` [Lomeguatrib], the drug sensitivity score was 0.4.

With `NC(=O)N1CCC(CC(=O)N2CCC([C@H]3c4ncc(Br)cc4CCc4cc(Cl)cc(Br)c43)CC2)CC1` [Lonafarnib], the drug sensitivity score was determined as 9.2.

In the case of `Cc1c(F)cc(C(=O)NC2CC2)cc1-c1ccc(C(=O)NCC(C)(C)C)cn1` [Losmapimod], the drug sensitivity score stood at 0.4.

The compound `CC[C@H](C)C(=O)O[C@H]1C[C@@H](C)C=C2C=C[C@H](C)[C@H](CC[C@@H]3C[C@@H](O)CC(=O)O3)[C@H]21` [Lovastatin] had a drug sensitivity score of 0.

Regarding `CNC(=O)c1cccc2cc(Oc3ccnc4cc(OCC5(N)CC5)c(OC)cc34)ccc12` [Lucitanib], the drug sensitivity score amounted to 2.3.

Take `CCNC(=O)c1noc(-c2cc(C(C)C)c(O)cc2O)c1-c1ccc(CN2CCOCC2)cc1` [Luminespib]: the drug sensitivity score amounted to 11.6.

On to `O=C(O)CC[C@H]1CC[C@@](c2cc(F)ccc2F)(S(=O)(=O)c2ccc(Cl)cc2)CC1` [MK-0752], for which the drug sensitivity score is 0.

Compound `NC1(c2ccc(-c3nc4ccn5c(=O)[nH]nc5c4cc3-c3ccccc3)cc2)CCC1` [MK-2206] yielded a drug sensitivity score of 1.2.

For `O=C(c1cccc(Cl)c1F)N1CCN(Cc2cccc(Nc3nccs3)n2)CC1` [MK-8745], the drug sensitivity score came out at 0.

As for `Cn1cc(-c2cnn3c(N)c(Br)c([C@@H]4CCCNC4)nc23)cn1` [MK-8776], the drug sensitivity score stood at 0.

Take `Cc1cnc(-c2ccccc2C(C)C)nc1NCc1ccc(-n2ccnn2)cc1` [ML323]: the drug sensitivity score was determined as 0.1.

As to `O=C(CCNC(=O)c1ccc(OC(F)(F)F)cc1)N[C@@H]1CCCc2ccccc21` [ML390], the drug sensitivity score was found to be 4.1.

In turn, `O=C(Nc1cccc(NC(=O)c2cccc(O)c2O)c1)c1cccc(O)c1O` [MST-312] returned a drug sensitivity score of 5.4.

The compound `CNC(=O)[C@@H](NC(=O)[C@H](CC(C)C)[C@H](O)C(=O)NO)C(C)(C)C` [Marimastat] yielded a drug sensitivity score of 0.

`Cc1ccc(NC(=O)c2ccc(CN3CCN(C)CC3)cc2)cc1Nc1nc(-c2cccnc2)cs1` [Masitinib]: the drug sensitivity score was found to be 1.7.

As to `CC(=O)O[C@]1(C(C)=O)CC[C@H]2[C@@H]3C=C(C)C4=CC(=O)CC[C@]4(C)[C@H]3CC[C@@]21C` [Megestrol acetate], the drug sensitivity score was 0.

`CCN(CC)CCCC(C)Nc1c2ccc(Cl)cc2nc2ccc(OC)cc12` (stereo not drawn) [Mepacrine] had a drug sensitivity score of 10.3.

As for `S=c1[nH]cnc2nc[nH]c12` [Mercaptopurine], the drug sensitivity score came out at 0.1.

Turning to `Cc1ccc(C(=O)Nc2ccc(Oc3cc4cnn(C)c4cc3-c3cn[nH]c3)c(F)c2)c(=O)n1-c1ccc(F)cc1` [Merestinib], the drug sensitivity score stood at 0.

For `CN(C)C(=N)NC(=N)N` [Metformin], the drug sensitivity score was found to be 0.

Consider `CN(Cc1cnc2nc(N)nc(N)c2n1)c1ccc(C(=O)N[C@@H](CCC(=O)O)C(=O)O)cc1` [Methotrexate], for which the drug sensitivity score was determined as 0.

A further assay relates to HOSE2C. The assay is described as above. The conditions noted are these: exposure time: 72 h; concentration range: 5 concentrations over 10,000-fold range. An outline of the steps: as §1
`Nc1cc(COc2c(Cl)cc(C[C@H](N)C(=O)O)cc2Cl)c2oc(-c3ccccc3)nc2c1` [JPH203] returned a drug sensitivity score of 0.

Turning to `CC(C)NC(=O)COc1cccc(-c2nc(Nc3ccc4[nH]ncc4c3)c3ccccc3n2)c1` [KD025], the drug sensitivity score was 0.

The compound `CS(=O)(=O)CCNCc1ccc(-c2ccc3ncnc(Nc4ccc(OCc5cccc(F)c5)c(Cl)c4)c3c2)o1` [Lapatinib] showed a drug sensitivity score of 0.

Compound `O=C(Nc1cnn2ccc(N3CCC[C@@H]3c3cc(F)ccc3F)nc12)N1CC[C@H](O)C1` [Larotrectinib] had a drug sensitivity score of 0.

For the compound `Oc1ccc2c(c1)CC[C@H](c1ccccc1)[C@@H]2c1ccc(OCCN2CCCC2)cc1` [Lasofoxifene], the drug sensitivity score amounted to 0.

Consider `Nc1cccc2c1CN(C1CCC(=O)NC1=O)C2=O` (stereo not drawn) [Lenalidomide], for which the drug sensitivity score came to 0.

In the case of `COc1cc2nccc(Oc3ccc(NC(=O)NC4CC4)c(Cl)c3)c2cc1C(N)=O` [Lenvatinib], the drug sensitivity score worked out at 2.9.

Regarding `N#Cc1ccc(C(c2ccc(C#N)cc2)n2cncn2)cc1` [Letrozole], the drug sensitivity score was 0.

Consider `Cc1ccc(F)c(NC(=O)Nc2ccc(-c3cccc4[nH]nc(N)c34)cc2)c1` [Linifanib], for which the drug sensitivity score stood at 0.

In the case of `C[C@]1(O)C[C@@H](c2nc(-c3ccc4ccc(-c5ccccc5)nc4c3)c3c(N)nccn32)C1` [Linsitinib], the drug sensitivity score came out at 2.

Consider `CCNCCS(=O)(=O)NC[C@@]1(c2ccccc2)SC(NC(=O)C(C)(C)C)=NN1C(=O)C(C)(C)C` [Litronesib], for which the drug sensitivity score is 16.7.

For the compound `Nc1nc(OCc2cc(Br)cs2)c2[nH]cnc2n1` [Lomeguatrib], the drug sensitivity score worked out at 0.

Consider `NC(=O)N1CCC(CC(=O)N2CCC([C@H]3c4ncc(Br)cc4CCc4cc(Cl)cc(Br)c43)CC2)CC1` [Lonafarnib], for which the drug sensitivity score was 8.9.

`Cc1c(F)cc(C(=O)NC2CC2)cc1-c1ccc(C(=O)NCC(C)(C)C)cn1` [Losmapimod] gave a drug sensitivity score of 0.

Consider `CC[C@H](C)C(=O)O[C@H]1C[C@@H](C)C=C2C=C[C@H](C)[C@H](CC[C@@H]3C[C@@H](O)CC(=O)O3)[C@H]21` [Lovastatin], for which the drug sensitivity score amounted to 7.8.

Consider `CNC(=O)c1cccc2cc(Oc3ccnc4cc(OCC5(N)CC5)c(OC)cc34)ccc12` [Lucitanib], for which the drug sensitivity score is 5.9.
